Reference: patent publication US11839210B1, “Plant growth promoter with strigolactones regulation activities” (King Abdullah University of Science and Technology, priority 2017, dated 2023)

Key:
D27 = assay: qRT-PCR of D27 gene expression in rice roots after zaxinone treatment; assay type: in vivo, rice (Oryza sativa Nipponbare); details: −Pi, 6 h
Experimental: For the analysis of SL transcript levels in the zas mutant, one week-old seedlings were grown hydroponically in half-strength modified Hoagland nutrient solution with K2HPO4·2H2O (+Pi) and without K2HPO4·2H2O (−Pi) for 7 days. Seedlings were further treated with zaxinone for 6 h and tissues were collected.
Total RNA was extracted from the roots and shoots using a Qiagen Plant RNeasy Kit according to the manufacturer's instruction. cDNA was synthesized from 1 μg of total RNA using iScript cDNA Synthesis Kit (BIO-RAD Laboratories, Inc, 2000 Alfred Nobel Drive, Hercules, CA, Cat. No #170-8890) according to instructions in the user manual. For mycorrhizal samples, single-strand cDNA was synthesized from 1 μg of total RNA using Super-Script II (Invitrogen) according to instructions in the user manual. Primers used for real-time quantitative RT-PCR (qRT-PCR) analysis are listed below in Table 3. qRT-PCR was performed using SYBR Green Master Mix (Applied Biosystems; www.lifetechnologies.com) in a StepOnePlus (Life Technologies, Carlsbad, CA, USA). For mycorrhizal samples, qRT-PCR was performed using a Rotor-Gene Q 5plex HRM Platform (Qiagen). The 2-ΔCt method was used to calculate the relative gene expression levels and rice Ubiquitin (OsUBQ or OsRubQ1) gene was used as the internal control to normalize target gene expression.
14-day-old rice seedlings were transferred to new hydroponic pots containing fresh media with or without chemicals for 6 hours. SL biosynthetic (D27, D10, D17 and MAX1-Os900) gene expression were determined under −Pi conditions (phosphate deficient) with zaxinone (2.5 and 5 μM) treatment of both Nipponbare wild-type (WT) rice roots and zas mutant rice roots. The expression levels (1301) were detected by quantitative RT-PCR. Ubiquitin was used as a reference gene. Mock treatment (control) treatment consisted of 0.1% acetone. Bars (1302) show comparisons between the treatments and represent mean±SD (n=3). Decrease in SLs levels in the plants treated with zaxinone ranged from approximately 40% to 70%.

4-deoxyorobanchol (4-DO) = assay: LC-MS/MS quantification of 4-deoxyorobanchol in rice roots and root exudates; assay type: in vivo; details: phosphate-starved, 6 h
Experimental: (§1) For the analysis of SLs, one week-old seedlings were further transferred into 50 ml falcon tube (three seedlings per tube) containing Hoagland nutrient solution with K2HPO4·2H2O (+Pi) and grown in the growth cabinet for one week. The rice seedlings were then subjected to phosphate deficiency for another one week period. On the day of root exudates collection, rice seedlings were first treated with 5 μM zaxinone for 6 h and then root exudates and root tissues were collected from each tube for LC-MS/MS analysis and Striga bioassays.
(§2) For the quantification of 4-deoxyorobanchol in rice root exudates, 50 ml of root exudate spiked with 0.672 ng of D6-5-deoxystrigol, was brought on a 500 mg/3 ml fast SPE C18 column preconditioned with 6 ml of methanol and 6 ml of water. After washing with 6 ml of water, strigolactones were eluted in 5 ml of acetone. The 4-deoxyorobanchol fraction (acetone-water solution) was concentrated to SLs aqueous solution (˜1 ml), followed by extraction with 1 ml of ethyl acetate. Then 750 μl of 4-deoxyorobanchol enriched organic phase was transferred to a 1.5 ml tube and evaporated to dryness under vacuum. The residue was dissolved in 100 μl of acetonitrile:water (25:75, v:v) and filtered through a 0.22 μm filter for LC-MS/MS analysis.
(§3) For the quantification of 4-deoxyorobanchol in rice root, plant tissue material was lyophilized and ground. 30 mg root tissue spiked with 0.672 ng of D6-5-deoxystrigol was extracted with 2 ml of ethyl acetate in an ultrasound bath (Branson 3510 ultrasonic bath) for 15 minutes, followed by centrifugation for 8 minutes at 3800 rpm at 4° C. The supernatant was collected and the pellet was re-extracted with 2 ml of ethyl acetate. The two supernatants were then combined and dried under vacuum. The residue was dissolved in 100 μl of ethyl acetate and 2 ml of hexane. The resulting extract solution was loaded on a Silica gel SPE column (500 mg/3 ml) preconditioned with 3 ml of ethyl acetate and 3 ml of Hexane. After washing with 3 ml of Hexane, 4-deoxyorobanchol was eluted in 3 ml of ethyl acetate and evaporated to dryness under vacuum. The residue was re-dissolved in 200 μl of acetonitrile:water (25:75, v:v) and filtered through a 0.22 μm filter for LC-MS/MS analysis.
(§4) 4-Deoxyorobanchol was analyzed by using HPLC-Q-Trap-MS/MS with MRM mode. Chromatographic separation was achieved on an Agilent 1200 HPLC system with an Acquity UPLC BEH C18 column (50×2.1 mm; 1.7 μm; Waters Corp.). Mobile phases consisted of water:acetonitrile (95:5, v:v, A) and acetonitrile (B), both containing 0.1% formic acid. […]
SL, 4-deoxyorobanchol (4-DO), was quantified in wild-type and zas mutant roots (FIG. 18A) and root exudates (FIG. 18B) without added zaxinone and in response to zaxinone (5 μM) under phosphate starvation. […]

epi-5DS (5-deoxystrigol) = assay: LC-MS/MS levels of epi-5DS in rice root exudates and roots; assay type: in vivo; details: −Pi, 5 μM zaxinone
Experimental: as §1, §2, §3, §4
The levels of epi-5DS (5-deoxystrigol) in root exudates (FIG. 15A) and roots (FIG. 15B) for WT and zas mutant rice under −Pi conditions (phosphate deficient) with zaxinone (5 μM) treatment were determined by LC-MS/MS. […]

CC(=O)/C=C/C=C(C)/C=C/C1=C(C)C[C@@H](O)CC1(C)C [zaxinone, 3-OH-β-apo-13-carotenone]
decrease of D27 relative expression vs mock (D27; WT rice roots, 2.5 μM zaxinone): approximately 50% | D27 relative expression (D27; WT rice roots, 2.5 μM zaxinone, WT mock approx. 1.0): approximately 0.5 | decrease of D27 relative expression vs mock (D27; WT rice roots, 5.0 μM zaxinone): ~75% | D27 relative expression (D27; WT rice roots, 5.0 μM zaxinone, WT mock approx. 1.0): approximately 0.25 | decrease of D27 relative expression vs mock (D27; zas mutant rice roots, 2.5 μM zaxinone): approximately 63% | D27 relative expression (D27; zas mutant rice roots, 2.5 μM zaxinone, zas mock approx. 3.25): approximately 1.2 | decrease of D27 relative expression vs mock (D27; zas mutant rice roots, 5.0 μM zaxinone): ~77% | D27 relative expression (D27; zas mutant rice roots, 5.0 μM zaxinone, zas mock approx. 3.25): approximately 0.75 | SL content in roots and root exudates (4-deoxyorobanchol (4-DO); Shiokari d3 mutant, 5 μM): lowered | SL content in roots and root exudates (4-deoxyorobanchol (4-DO); wild-type seedlings, 5 μM zaxinone): Reduction of SL content | SL (4-deoxyorobanchol) content in roots after zaxinone (4-deoxyorobanchol (4-DO); zas mutant seedlings, 5 μM zaxinone, untreated 13): 5 pgmg^−1dry-root-weight | SL (4-deoxyorobanchol) content in root exudates after zaxinone (4-deoxyorobanchol (4-DO); zas mutant seedlings, 5 μM zaxinone, untreated 35): 5 pgmg^−1 dry-root-weight | decrease of epi-5DS level in root exudates, mock to zaxinone (epi-5DS (5-deoxystrigol); WT rice): around 75% | decrease of epi-5DS level in roots, mock to zaxinone (epi-5DS (5-deoxystrigol); WT rice): around 50% | decrease of epi-5DS level in root exudates, mock to zaxinone (epi-5DS (5-deoxystrigol); zas mutant rice): approximately 64% | decrease of epi-5DS level in roots, mock to zaxinone (epi-5DS (5-deoxystrigol); zas mutant rice): around 75%
